Experimental data as given in patent publication US20240182453A1, “NOVEL SUBSTITUTED PYRAZINE-CARBOXAMIDE DERIVATIVES” (Boehringer Ingelheim International GmbH, priority 2022, published 2024).

target: human metabotropic Glutamate 4 receptor (mGluR4) (Homo sapiens (Human), UniProt Q14833); experiment: Assay A: in vitro testing of mGluR4 potency (glutamate-induced cAMP lowering, HTRF cAMP); assay type: cell-based; conditions: HEK293 cells overexpressing human mGluR4; 10 uM L-glutamic acid, 1 uM forskolin; compounds of the present invention
Sequence (Q14833 33-912): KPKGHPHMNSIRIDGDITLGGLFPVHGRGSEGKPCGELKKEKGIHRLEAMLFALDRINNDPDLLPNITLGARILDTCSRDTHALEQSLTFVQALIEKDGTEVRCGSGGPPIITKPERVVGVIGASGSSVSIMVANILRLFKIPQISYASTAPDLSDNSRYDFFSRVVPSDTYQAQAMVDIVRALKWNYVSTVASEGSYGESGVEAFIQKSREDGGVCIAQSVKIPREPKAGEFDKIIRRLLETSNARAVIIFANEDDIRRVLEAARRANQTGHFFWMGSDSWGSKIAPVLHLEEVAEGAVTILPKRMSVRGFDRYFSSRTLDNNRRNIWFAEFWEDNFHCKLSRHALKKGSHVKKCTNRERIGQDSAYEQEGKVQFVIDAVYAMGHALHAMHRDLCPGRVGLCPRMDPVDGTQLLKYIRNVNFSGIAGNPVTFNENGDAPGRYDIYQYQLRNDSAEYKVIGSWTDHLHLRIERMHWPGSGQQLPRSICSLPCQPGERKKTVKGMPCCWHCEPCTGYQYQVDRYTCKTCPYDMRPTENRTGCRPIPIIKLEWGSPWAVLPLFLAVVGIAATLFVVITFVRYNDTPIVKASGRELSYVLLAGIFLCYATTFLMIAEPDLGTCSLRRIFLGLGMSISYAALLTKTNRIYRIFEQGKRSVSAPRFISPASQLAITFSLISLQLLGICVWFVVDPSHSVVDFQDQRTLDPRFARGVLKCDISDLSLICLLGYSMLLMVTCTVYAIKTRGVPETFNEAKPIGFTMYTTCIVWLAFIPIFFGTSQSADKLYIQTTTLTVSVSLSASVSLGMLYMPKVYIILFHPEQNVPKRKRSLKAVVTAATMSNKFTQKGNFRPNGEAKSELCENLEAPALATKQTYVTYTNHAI
Procedure, shortened: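 HEK293 cells overexpressing human mGluR4 treated 30 min at room temperature with compound plus 10 uM L-glutamate, 1 uM forskolin, 0.5 mM IBMX, 0.1% BSA, 1% DMSO. cAMP read by HTRF (665/615 nm ratio), normalized to glutamate (100%) and no-glutamate (0%) controls as percent of control.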

Structure (SMILES)	IC50
Cc1cnc(C(=O)N[C@H](c2nc3ccc(Cl)cc3n2CC(F)F)C2CC2)cn1 [Example 157, N-[(S)-[6-chloro-1-(2,2-difluoroethyl)-1H-1,3-benzodiazol-2-yl](cyclopropyl)methyl]-5-methylpyrazine-2-carboxamid]	6 nM
Cc1cnc(C(=O)N[C@H](c2nc3cc(Cl)ccc3n2CC(F)F)C2CC2)cn1 [Example 158, N-[(S)-[5-chloro-1-(2,2-difluoroethyl)-1H-1,3-benzodiazol-2-yl](cyclopropyl)methyl]-5-methylpyrazine-2-carboxamide]	3 nM
CCn1c([C@@H](NC(=O)c2cnc(C)cn2)[C@@]2(O)CCOC2)nc2cc(C(F)(F)F)ccc21 [Example 167, N-[(R)-[1-ethyl-5-(trifluoromethyl)-1H-1,3-benzodiazol-2-yl][(3S)-3-hydroxyoxolan-3-yl]methyl]-5-methylpyrazine-2-carboxamide]	55 nM

Next, values leading:

IC50	Structure (SMILES)
84 nM	CCn1c([C@@H](NC(=O)c2cnc(C)cn2)[C@]2(O)CCOC2)nc2cc(Cl)ccc21 [Example 154, N-[(R)-(5-chloro-1-ethyl-1H-1,3-benzodiazol-2-yl)[(3R)-3-hydroxyoxolan-3-yl]methyl]-5-methylpyrazine-2-carboxamide]
63 nM	CCn1c([C@@H](NC(=O)c2cnc(C)cn2)[C@]2(O)CCOC2)nc2ccc(C(F)(F)F)cc21 [Example 155, N-[(R)-[1-ethyl-6-(trifluoromethyl)-1H-1,3-benzodiazol-2-yl][(3R)-3-hydroxyoxolan-3-yl]methyl]-5-methylpyrazine-2-carboxamide]
39 nM	CCn1c([C@@H](NC(=O)c2cnc(C)cn2)[C@]2(O)CCOC2)nc2cc(C(F)(F)F)ccc21 [Example 156, N-[(R)-[1-ethyl-5-(trifluoromethyl)-1H-1,3-benzodiazol-2-yl][(3R)-3-hydroxyoxolan-3-yl]methyl]-5-methylpyrazine-2-carboxamide]
